Test results from patent US20050009924A1 (priority 2003, published 2005).

Key:
human hepatoma G2 cells = test: Cytotoxicity assay (XTT colorimetric), Hep G2; format: cell-based; settings: Homo sapiens, HepG2; 48 h of drug exposure
rat glioma C6 cells = test: Cytotoxicity assay (XTT colorimetric), C6 cells; format: cell-based; settings: Rattus norvegicus, C6; 48 h of drug exposure
[1] = system: transcriptional activity of hTERT; test: SEAP reporter assay of hTERT expression, PhTERT-SEAP (hTERT-BJ1); format: cell-based, human; settings: Homo sapiens, hTERT-BJ1, read-out: Relative SEAP activity (%)
In short: (§1)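 Cells seeded, grown 24 h at 37° C, refed, then exposed to varying drug amounts for another 24 h. Collected media heated 65° C for 10 min to kill heat-labile phosphatases, mixed with equal SEAP buffer (2 M diethanolamine, 1 mM MgCl2, 20 mM […]) plus 12 mM final p-nitrophenyl phosphate; rate of A405 increase measured.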

[2] = system: transcriptional activity of hTERT; test: SEAP reporter assay of hTERT expression, PhTERT-SEAP (H1299); format: cell-based, human; settings: Homo sapiens, NCI-H1299, H1299, read-out: Relative SEAP activity (%)
In short: as §1

[3] = MTT relative viability, PhTERT-SEAP (H1299) cells; settings: human
Experimental: The tetrazolium reagent (MTT; 3-(4,5-di-methylthiazol)-2,5-diphenyl tetrazolium bromide, USB) was designed to yield a colored formazan upon metabolic reduction by viable cells. Approximately […] cells were plated onto each well of a 96-well plate and incubated in 5% CO2 at 37° C. for 24 h. To assess the in vitro cytotoxicity, each compound was dissolved in DMSO and prepared immediately before the experiments and was diluted into the complete medium before addition to cell cultures. Test compounds were then added to the culture medium for designated various concentrations. After 48 h, an amount of 25 μL of MTT was added to each well, and the samples were incubated at 37° C. for 4 h. A 100 μL solution of lysis buffer containing 20% SDS and 50% N,N-dimethylformamide was added to each well and incubated at 37° C. for another 16 h. The absorbency at 550 nm was measured using an ELISA reader.
Non small lung cancer cells H1299 (telomerase positive) were grown in RPMI 1640 media supplemented with 10% fetal bovine serum, 100 units/mL penicillin and 100 mg/mL streptomycin in a humidified atmosphere with 5% CO2 at 37° C. The hTERT immortalized hTERT-BJ1 (BD Biosciences Clontech)^39 were grown in DMEM media supplemented with 10% fetal calf serum, 100 units/mL penicillin and 100 mg/mL streptomycin, 1 mM sodium pyruvate, and 4 mM I-arginine in a humidified atmosphere with 5% CO2 at 37° C. Culture media were changed every 3 days. […] The stable clones derived from H1299 or hTERT-BJ1 were cultured using conditions that are similar to their parental cells.

[4] = MTT relative viability, PhTERT-SEAP (hTERT-BJ1) cells; settings: human
[5] = system: iron-induced lipid peroxidation in rat brain homogenates; test: Iron-induced lipid peroxidation in rat brain homogenates; settings: for Inhibition of LP(10 mM): mean percent inhibition (Table 3); for LP (%) (10 mM): relative percentage of inhibition (Table 1)
[6] = hTERT-BJ1 cells, stable PhTERT-SEAP reporter clone

SMILES	IC50 (human hepatoma G2 cells) [µM]	IC50 (rat glioma C6 cells) [µM]	activity at 2.1 µM [1] [%]	activity at 21 µM [1] [%]	activity at 210 µM [1] [%]	activity at 2.1 µM [2] [%]	activity at 21 µM [2] [%]	activity at 210 µM [2] [%]	melting point [°C]	viability at 48 h, 2.1 µM [3] [%]	viability at 48 h, 21 µM [3] [%]	viability at 48 h, 210 µM [3] [%]	viability at 48 h, 2.1 µM [4] [%]	viability at 48 h, 21 µM [4] [%]	viability at 48 h, 210 µM [4] [%]	Inhibition of LP(10 mM) ([5]; 10 mM)	LP (%) (10 mM) ([5]; 10 mM)	other results
Cc1ccccc1C(=O)Oc1cccc2c1C(=O)c1cccc(OC(=O)c3ccccc3C)c1C2=O [IIIj, 1,5-Bis(2-toluoyloxy)-anthraquinone]	21.6 ± 2.2	25.1 ± 2.8	129 ± 13	120 ± 24	94 ± 27.1	97 ± 4.4	91 ± 7.4	90 ± 4.2	262 to 263	72 ± 4.9	36 ± 9.7	45 ± 8	118 ± 11.6	82 ± 8.5	39 ± 13	23 ± 1.1%		
Cc1cccc(C(=O)Oc2cccc3c2C(=O)c2cccc(OC(=O)c4cccc(C)c4)c2C3=O)c1 [IIIk, 1,5-Bis(3-toluoyloxy)-anthraquinone]	18.1 ± 1.5	30.1 ± 3.3	141 ± 10.5	124 ± 15.6	86 ± 17.2	104 ± 5.4	116 ± 12.8	110 ± 16.4	269 to 270	26 ± 3.7	28 ± 5	29 ± 3.3	98 ± 9.4	54 ± 7.5	47 ± 4.8	−32 ± 1.5^ %		
Cc1ccc(C(=O)Oc2cccc3c2C(=O)c2cccc(OC(=O)c4ccc(C)cc4)c2C3=O)cc1 [IIIl, 1,5-Bis(4-toluoyloxy)-anthraquinone]	9.3 ± 0.9	37.6 ± 4.1	130 ± 8.8	126 ± 13.3	99 ± 15.8	98 ± 1.1	95 ± 4.3	95 ± 8.9	331 to 332	61 ± 5.8	33 ± 2.8	32 ± 5.7	102 ± 13.9	98 ± 6.3	56 ± 6.2	33 ± 1.2%		
O=C(Cc1ccccc1)Oc1cccc2c1C(=O)c1cccc(OC(=O)Cc3ccccc3)c1C2=O [IIIm, 1,5-Bis(phenylacetyloxy)-anthraquinone]	9 ± 1.5	39.1 ± 6.2	129 ± 4.5	125 ± 4.3	100 ± 17.3	98 ± 0.3	101 ± 6.8	142 ± 14	202 to 203	91 ± 4.2	53 ± 2.3	30 ± 1.6	106 ± 9	97 ± 8.2	64 ± 10.2	−1 ± 0.2%		
O=C(CCc1ccccc1)Oc1cccc2c1C(=O)c1cccc(OC(=O)CCc3ccccc3)c1C2=O [IIIn, 1,5-Bis(phenylpropionyloxy)-anthraquinone]	0.4 ± 0.1	40.1 ± 5.5							219 to 220							>100%		activity at 2 µM ([1]; 2.0 μM): 126 ± 6.1%; activity at 20 µM ([1]; 20 μM): 124 ± 13.4%; activity at 200 µM ([1]; 200 μM): 110 ± 10.5%; activity at 2 µM ([2]; 2.0 μM): 94 ± 2.5%; activity at 20 µM ([2]; 20 μM): 98 ± 4.7%; activity at 200 µM ([2]; 200 μM): 89 ± 5.2%; viability at 48 h, 2 µM [3]: 111 ± 0.8%; viability at 48 h, 20 µM [3]: 101 ± 4.3%; viability at 48 h, 200 µM [3]: 54 ± 4.1%; viability at 48 h, 2 µM [4, 6]: 111 ± 7.3%; viability at 48 h, 20 µM [4, 6]: 106 ± 6.6%; viability at 48 h, 200 µM [4, 6]: 76 ± 7.2%; Inhibition (%) ([5]; 0.01 mM): 50 ± 0.8%; Inhibition (%) ([5]; 0.1 mM): 95 ± 2.0%; Inhibition (%) ([5]; 1 mM): >100%; Inhibition (%) ([5]; 10 mM): >100%
CCSc1cccc2c1C(=O)c1cccc(SCC)c1C2=O [IIa, 1,5-Bis(ethylthio)-anthraquinone]	12.2 ± 1.1	0.02 ± 0.01							235 to 236								83 ± 2.2	activity at 3 µM ([1]; 3.0 μM): 109 ± 22.4%; activity at 30 µM ([1]; 30 μM): 110 ± 14.3%; activity at 300 µM ([1]; 300 μM): 104 ± 20.6%; activity at 3 µM ([2]; 3.0 μM): 134 ± 14.4%; activity at 30 µM ([2]; 30 μM): 111 ± 7.7%; activity at 300 µM ([2]; 300 μM): 99 ± 14.3%; viability at 48 h, 3 µM [3]: 111 ± 2.8%; viability at 48 h, 30 µM [3]: 44 ± 7.3%; viability at 48 h, 300 µM [3]: 25 ± 2.3%; viability at 48 h, 3 µM [4]: 112 ± 9.2%; viability at 48 h, 30 µM [4]: 98 ± 12.3%; viability at 48 h, 300 µM [4]: 34 ± 18.1%
CCCSc1cccc2c1C(=O)c1cccc(SCCC)c1C2=O [IIc, 1,5-Bis(propylthio)-anthraquinone]	75.1 ± 2.5	29.9 ± 2.1							232 to 233								15 ± 1.5	activity at 2.8 µM ([1]; 2.8 μM): 132 ± 21%; activity at 28 µM ([1]; 28 μM): 110 ± 13.2%; activity at 280 µM ([1]; 280 μM): 122 ± 14.3%; activity at 2.8 µM ([2]; 2.8 μM): 73 ± 5.4%; activity at 28 µM ([2]; 28 μM): 29 ± 2.5%; activity at 280 µM ([2]; 280 μM): 17 ± 13.9%; viability at 48 h, 2.8 µM [3]: 96 ± 5.9%; viability at 48 h, 28 µM [3]: 44 ± 2.5%; viability at 48 h, 280 µM [3]: 25 ± 2.4%; viability at 48 h, 2.8 µM [4]: 103 ± 6.3%; viability at 48 h, 28 µM [4]: 97 ± 3%; viability at 48 h, 280 µM [4]: 39 ± 4.9%
O=C1c2cccc(SCCCCCCO)c2C(=O)c2cccc(SCCCCCCO)c21 [IIe, 1,5-Bis(hydroxyhexylthio)-anthraquinone]	49.3 ± 2.1	31.7 ± 1.6	140 ± 9.7	128 ± 14.4	75 ± 17.4	110 ± 6.1	100 ± 5.5	68 ± 5.9	195 to 196	99 ± 6.2	94 ± 3.9	36 ± 4.2	99 ± 6.2	70 ± 2.2	40 ± 4.7		54 ± 1.9	
Nc1cccc(Sc2cccc3c2C(=O)c2cccc(Sc4cccc(N)c4)c2C3=O)c1 [IIg, 1,5-Bis(m-aminophenylthio)-Anthraquinone]	21.5 ± 1.2	26.3 ± 2.8							292 to 293								6 ± 0.9	activity at 2.2 µM [1]: 118 ± 9.9%; activity at 22 µM [1]: 41 ± 9.5%; activity at 220 µM [1]: 8 ± 30.6%; activity at 2.2 µM [2]: 106 ± 7.6%; activity at 22 µM [2]: 109 ± 11.7%; activity at 220 µM [2]: 101 ± 7.3%; viability at 48 h, 2.2 µM [3]: 92 ± 3.5%; viability at 48 h, 22 µM [3]: 68 ± 1.9%; viability at 48 h, 220 µM [3]: 32 ± 4.9%; viability at 48 h, 2.2 µM [4]: 104 ± 5.1%; viability at 48 h, 22 µM [4]: 9 ± 3.4%; viability at 48 h, 220 µM [4]: 4 ± 1.5%
Nc1ccc(Sc2cccc3c2C(=O)c2cccc(Sc4ccc(N)cc4)c2C3=O)cc1 [IIh, 1,5-Bis(p-aminophenylthio)-Anthraquinone]	17.4 ± 1.5	0.05 ± 0.01							364 to 365								20 ± 1.4	activity at 2.2 µM [1]: 97 ± 17.9%; activity at 22 µM [1]: 97 ± 14.5%; activity at 220 µM [1]: 26 ± 12.6%; activity at 2.2 µM [2]: 100 ± 5.7%; activity at 22 µM [2]: 95 ± 2.6%; activity at 220 µM [2]: 84 ± 5.3%; viability at 48 h, 2.2 µM [3]: 103 ± 4.3%; viability at 48 h, 22 µM [3]: 76 ± 4%; viability at 48 h, 220 µM [3]: 42 ± 2.3%; viability at 48 h, 2.2 µM [4]: 86 ± 11.9%; viability at 48 h, 22 µM [4]: 65 ± 12.6%; viability at 48 h, 220 µM [4]: 56 ± 13.8%
